# Laboratory results published in ChEMBL document CHEMBL4823295, “Design, synthesis and preliminary bioactivity evaluation of bitopic benzopyranomorpholine analogues as selective dopamine D3 receptor ligands as anti-drug addiction therapeutic agents” (Bioorg Med Chem Lett, 2021).
# Calls of active or inactive are those of the source. No cut-off for these calls is given here.
# How the values were obtained:
# Homo sapiens = species: Homo sapiens; experiment: Selectivity ratio of Ki for human D2 receptor transfected in HEK293 cell membrane to Ki for human D3 receptor transfected in HEK293 cell membrane; format: cell-based
# D(3) dopamine receptor = D(3) dopamine receptor (Homo sapiens, UniProt P35462); experiment: Displacement of [3H]spiperone from human D3 receptor transfected in HEK293 cell membrane measured after 50 mins by competitive radioligand binding analysis; format: cell membranes
# Mus musculus [1] = experiment: Anti-addiction activity in naloxone-induced withdrawal symptoms in morphine-dependent mouse model assessed as inhibition of naloxone-induced body weight loss at 50 mg/kg, ip administered 60 mins prior to naloxone injection and measured after 2 hrs of naloxone injection; format: functional, organism-based; settings: time 3.0 hrs
# D(2) dopamine receptor = D(2) dopamine receptor (Homo sapiens, UniProt P14416); experiment: Displacement of [3H]spiperone from human D2 receptor transfected in HEK293 cell membrane measured after 50 mins by competitive radioligand binding analysis; format: cell membranes
# Mus musculus [2] = experiment: Anti-addiction activity in naloxone-induced withdrawal symptoms in morphine-dependent mouse model assessed as inhibition of naloxone-induced jumping response at 50 mg/kg, ip administered 60 mins prior to naloxone injection and measured for 30 mins after naloxone injection; format: functional, organism-based; settings: time 90.0 min
# Mus musculus [3] = experiment: Anti-addiction activity in naloxone-induced withdrawal symptoms in morphine-dependent mouse model assessed as reduction in diarrhea frequency at 50 mg/kg, ip administered 60 mins prior to naloxone injection and measured for 30 mins after naloxone injection; format: functional, organism-based; settings: time 90.0 min
# [4] = Toxicity in naloxone-induced withdrawal symptoms in morphine-dependent mouse model assessed as mortality at 50 mg/kg, ip administered 60 mins prior to naloxone injection; format: organism-based; settings: in vivo, 1 h
# [5] = Toxicity in naloxone-induced withdrawal symptoms in morphine-dependent mouse model assessed as convulsions at 50 mg/kg, ip administered 60 mins prior to naloxone injection; format: organism-based; settings: in vivo, 1 h
# [6] = Toxicity in naloxone-induced withdrawal symptoms in morphine-dependent mouse model assessed as inability to bounce at 50 mg/kg, ip administered 60 mins prior to naloxone injection; format: organism-based; settings: in vivo, 1 h
# [7] = Toxicity in naloxone-induced withdrawal symptoms in morphine-dependent mouse model assessed as slow crawling at 50 mg/kg, ip administered 60 mins prior to naloxone injection; format: organism-based; settings: in vivo, 1 h
# Mus musculus [8] = experiment: Anti-addiction activity in naloxone-induced withdrawal symptoms in morphine-dependent mouse model assessed as reduction in amount of diarrhea at 50 mg/kg, ip administered 60 mins prior to naloxone injection and measured for 30 mins after naloxone injection; format: functional, organism-based; settings: time 90.0 min
# Chain of D(3) dopamine receptor (P35462 whole entry): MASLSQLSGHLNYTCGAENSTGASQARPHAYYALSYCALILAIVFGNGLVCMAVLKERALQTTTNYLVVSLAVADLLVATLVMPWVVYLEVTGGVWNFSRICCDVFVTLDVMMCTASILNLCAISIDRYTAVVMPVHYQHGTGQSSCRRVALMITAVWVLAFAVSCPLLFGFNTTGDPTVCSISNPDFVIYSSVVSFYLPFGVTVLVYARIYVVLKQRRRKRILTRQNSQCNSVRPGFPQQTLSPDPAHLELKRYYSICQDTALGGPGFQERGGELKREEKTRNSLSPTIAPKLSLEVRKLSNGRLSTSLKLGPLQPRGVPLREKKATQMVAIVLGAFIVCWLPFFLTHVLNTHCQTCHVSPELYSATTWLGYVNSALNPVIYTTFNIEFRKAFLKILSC
# Chain of D(2) dopamine receptor (P14416 whole entry): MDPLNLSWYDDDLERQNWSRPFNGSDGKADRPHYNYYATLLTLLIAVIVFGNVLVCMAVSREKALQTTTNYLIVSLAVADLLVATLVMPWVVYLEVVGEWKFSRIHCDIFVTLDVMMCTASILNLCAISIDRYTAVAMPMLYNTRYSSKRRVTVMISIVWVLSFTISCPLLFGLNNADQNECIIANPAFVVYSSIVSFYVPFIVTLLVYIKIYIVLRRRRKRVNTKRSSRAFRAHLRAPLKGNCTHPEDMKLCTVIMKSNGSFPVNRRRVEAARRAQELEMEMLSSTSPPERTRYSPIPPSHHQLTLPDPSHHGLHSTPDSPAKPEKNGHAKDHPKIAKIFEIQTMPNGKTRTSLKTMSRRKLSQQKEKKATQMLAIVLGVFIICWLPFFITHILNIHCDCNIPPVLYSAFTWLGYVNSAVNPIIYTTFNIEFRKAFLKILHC
Structure (SMILES),Ratio Ki (Homo sapiens),Ki (D(3) dopamine receptor) [µM],Activity (Mus musculus [1]),Ki (D(2) dopamine receptor) [µM],Activity (Mus musculus [2]),Activity (Mus musculus [3]),Activity [4],Activity [5],Activity [6],Activity [7],Activity (Mus musculus [8])
O=C(NCCCCN1CCO[C@@H]2c3ccccc3OC[C@H]21)c1ccccc1 (racemic),11,0.072,Active,0.776,Active,,,,,,
O=C(NCCCCN1CCO[C@@H]2c3ccccc3OC[C@H]21)c1cccc2ccccc12 (racemic),36,0.0158,Active,0.563,Active,,,,,,
O=C(NCCCCN1CCO[C@@H]2c3ccccc3OC[C@H]21)c1cccc(Cl)c1 (racemic),28,0.0236,Active,0.663,,Active,,,,,
O=C(NCCCCN1CCO[C@@H]2c3ccccc3OC[C@H]21)c1cc2ccccc2[nH]1 (racemic),75,0.0105,Active,0.785,Active,,,,,,
COc1ccc2c(c1)[C@H]1OCCN(CCCCNC(=O)c3ccc(Cl)cc3)[C@@H]1CO2 (racemic),75,0.0129,,0.967,,,Toxic,,,,
O=C(NCCCCN1CCO[C@@H]2c3ccccc3OC[C@H]21)c1ccc([N+](=O)[O-])cc1 (racemic),28,0.0339,Active,0.962,Active,Active,,,,,
O=C(NCCCCN1CCO[C@@H]2c3ccccc3OC[C@H]21)c1ccc(-c2ccccc2)cc1 (racemic),23,0.0438,Active,1.02,Active,,,,,,
COc1ccccc1C(=O)NCCCCN1CCO[C@@H]2c3ccccc3OC[C@H]21 (racemic),67,0.0129,,0.863,,,,,,,
O=C(NCCCCN1CCO[C@@H]2c3ccccc3OC[C@H]21)C1CCCCC1 (racemic),11,0.0638,Active,0.728,Active,,,,,,
COc1ccc2c(c1)[C@H]1OCCN(CCCCNC(=O)c3ccco3)[C@@H]1CO2 (racemic),177,0.0052,inactive,0.923,Active,,,,,,
COc1ccc2c(c1)[C@H]1OCCN(CCCCNC(=O)c3ccc(-c4ccccc4)cc3)[C@@H]1CO2 (racemic),58,0.0184,Active,1.06,,,,,,,
COc1cc(C(=O)NCCCCN2CCO[C@@H]3c4ccccc4OC[C@H]32)cc(OC)c1OC (racemic),104,0.0068,inactive,0.708,,,,,,,
COc1ccc(C(=O)NCCCCN2CCO[C@@H]3c4ccccc4OC[C@H]32)cc1 (racemic),76,0.0075,Active,0.568,Active,Active,,,,,
COc1ccc2c(c1)[C@H]1OCCN(CCCCNC(=O)c3cccnc3)[C@@H]1CO2 (racemic),81,0.00916,,0.744,,,,Toxic,Toxic,Toxic,
CCCN1CCO[C@@H]2c3cc(O)ccc3OC[C@H]21,23,0.00182,,0.043,,,,,,,
COc1ccc2c(c1)[C@H]1OCCN(CCCCNC(=O)c3ccc4ccccc4c3)[C@@H]1CO2 (racemic),32,0.0199,Active,0.642,,,,,,,
O=C(NCCCCN1CCO[C@@H]2c3ccccc3OC[C@H]21)c1cccs1 (racemic),23,0.0185,Active,0.417,,Active,,,,,

Structure (SMILES),Ratio Ki (Homo sapiens),Ki (D(3) dopamine receptor) [µM],Activity (Mus musculus [1]),Ki (D(2) dopamine receptor) [µM],Activity (Mus musculus [2]),Activity (Mus musculus [3]),Activity [4],Activity [5],Activity [6],Activity [7],Activity (Mus musculus [8])
COc1ccc2c(c1)[C@H]1OCCN(CCCCNC(=O)c3ccc(Br)cc3)[C@@H]1CO2 (racemic),111,0.0086,Active,0.958,,,,,,,
O=C(NCCCCN1CCO[C@@H]2c3ccccc3OC[C@H]21)c1ccc2ccccc2c1 (racemic),53,0.0137,Active,0.723,,,,,,,Active
O=C(NCCCCN1CCO[C@@H]2c3ccccc3OC[C@@H]21)c1cccs1 (racemic),,> 1,inactive,,,,,,,,
COc1ccc2c(c1)[C@H]1OCCN(CCCCNC(=O)c3ccc([N+](=O)[O-])cc3)[C@@H]1CO2 (racemic),42,0.0139,Active,0.589,Active,,,,,,
COc1ccc2c(c1)[C@H]1OCCN(CCCCNC(=O)C3CCCCC3)[C@@H]1CO2 (racemic),21,0.0336,Active,0.688,Active,,,,,,Active
COc1ccc2c(c1)[C@H]1OCCN(CCCCNC(=O)c3cc(OC)c(OC)c(OC)c3)[C@@H]1CO2 (racemic),782,0.00123,,0.962,,,,Toxic,Toxic,Toxic,
COc1ccc2c(c1)[C@H]1OCCN(CCCCNC(=O)c3cccc(Cl)c3)[C@@H]1CO2 (racemic),30,0.0266,inactive,0.785,Active,,,,,,
O=C(NCCCCN1CCO[C@@H]2c3ccccc3OC[C@@H]21)c1ccc(Cl)cc1 (racemic),,> 1,Active,,,Active,,,,,
COc1ccc2c(c1)[C@H]1OCCN(CCCCNC(=O)c3ccccc3)[C@@H]1CO2 (racemic),41,0.0138,Active,0.568,,Active,,,,,
O=C(NCCCCN1CCO[C@@H]2c3ccccc3OC[C@@H]21)c1ccc(-c2ccccc2)cc1 (racemic),,> 1,inactive,,,,,,,,
COc1ccc(C(=O)NCCCCN2CCO[C@@H]3c4cc(OC)ccc4OC[C@H]32)cc1 (racemic),645,0.00108,Active,0.697,Active,,,,,,Active
O=C(NCCCCN1CCO[C@@H]2c3ccccc3OC[C@H]21)c1ccc(Cl)cc1 (racemic),27,0.0178,Active,0.473,,,,,,,Active
COc1ccc2c(c1)[C@H]1OCCN(CCCCNC(=O)c3cc4ccccc4[nH]3)[C@@H]1CO2 (racemic),755,0.00097,Active,0.732,,,,,,,Active
O=C(NCCCCN1CCO[C@@H]2c3ccccc3OC[C@H]21)c1ccco1 (racemic),73,0.0117,Active,0.853,,,Toxic,Toxic,,,
O=C(NCCCCN1CCO[C@@H]2c3ccccc3OC[C@H]21)c1ccc(Br)cc1 (racemic),66,0.0135,inactive,0.897,,,,,,,
COc1ccc2c(c1)[C@H]1OCCN(CCCCNC(=O)c3cccc4ccccc34)[C@@H]1CO2 (racemic),43,0.0198,Active,0.861,,,,,,,Active
COc1ccc2c(c1)[C@H]1OCCN(CCCCNC(=O)c3cccs3)[C@@H]1CO2 (racemic),122,0.00658,,0.803,,,,Toxic,Toxic,Toxic,
